Assay results from article PMC9964281, “Identification of CBPA as a New Inhibitor of PD-1/PD-L1 Interaction” (International Journal of Molecular Sciences, 2023).

Target: T1, hPD-L1 (Homo sapiens, UniProt Q9NZQ7)
T1 construct: gene CD274; ectodomain (residues 18–239)
Test: SPR (Biacore X100, CM5 chip with immobilized hPD-L1, steady-state fit)
Format: binding

T1 sequence (Q9NZQ7 18-239): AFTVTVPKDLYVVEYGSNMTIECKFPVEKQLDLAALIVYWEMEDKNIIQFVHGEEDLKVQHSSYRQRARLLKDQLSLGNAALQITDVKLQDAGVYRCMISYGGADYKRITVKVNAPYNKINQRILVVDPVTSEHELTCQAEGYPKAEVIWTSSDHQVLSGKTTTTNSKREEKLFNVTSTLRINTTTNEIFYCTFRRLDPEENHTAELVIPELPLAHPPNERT

For `Clc1ccc(COc2ccc(CNCc3ccncc3)cc2)cc1` [CBPA, N-{4-[(4-chlorobenzyl)oxy]benzyl}-N-(4-pyridinylmethyl)amine], the Kd was 48.1 µM.
